Consider one compound from patent US11903959B2 (EMORY UNIVERSITY, priority 2017, dated 2024).

The structures appear in SMILES notation. Read-outs that look alike come from different tables or passages of the source.

Assay type in all cases: cell-based
One assay deals with ZIKV. As to the kind of experiment: microbe, parasite or virus in culture. The following applies: Zika virus, Vero 76.
The next assay deals with RVFV. As to the kind of experiment: microbe, parasite or virus in culture. The following applies: Rift Valley fever virus, Vero.
For another assay, the system named is POWV. Briefly: microbe, parasite or virus in culture. The following applies: Powassan virus, BHK, BHK cells.
A further assay deals with Lassa fever virus. Briefly: organism not typed. The following applies: Vero.
The subject of the next assay is Punta Toro virus. As to the kind of experiment: microbe, parasite or virus in culture.

As to `O=c1nc(NO)ccn1C1OC(CO)C(O)C1O` (stereo not shown) [EIDD-1931, 1-(3,4-dihydroxy-5-(hydroxymethyl)tetrahydrofuran-2-yl)-4-(hydroxyamino)pyrimidin-2-one], the results for the EC90 in the assay on ZIKV and in the assay on RVFV were 2.36 µM and 1 µM, respectively. For the same compound, the EC50 in the assay on RVFV (RVFV, Vero cells) came to 1.68 µM; in the assay on POWV it was 11.2 µM; in the assay on Lassa fever virus, 4.04 µM; in the assay with Punta Toro virus, 20.4 µM; in the assay with Punta Toro virus (Punta Toro virus, Vero 76), 20 µM.
